Key:
Assay type in all cases: in vivo
corn (Zea mays) [1] = assay: Test C pre-/postemergence greenhouse test, plant response rating 0-100; settings: Postemergence; for Plant response rating, Corn: scale 0 to 100
Description: (§1) Seeds of plant species selected from blackgrass (Alopecurus myosuroides), Italian ryegrass (Lolium multiflorum), winter wheat (Triticum aestivum), galium (catchweed bedstraw, Galium aparine), corn (Zea mays), large (Lg) crabgrass (Digitaria sanguinalis), giant foxtail (Setaria faberii), johnsongrass (Sorghum halepense), lambsquarters (Chenopodium album), morningglory (Ipomoea coccinea), yellow nutsedge (Cyperus esculentus), pigweed (Amaranthus retroflexus), ragweed (common ragweed, Ambrosia elatior), soybean (Glycine max), barnyardgrass (Echinochloa crus-galli), oilseed rape (Brassica napus), waterhemp (common waterhemp, Amaranthus rudis), and velvetleaf (Abutilon theophrasti) were planted into a blend of loam soil and sand and treated preemergence with test chemicals formulated in a non-phytotoxic solvent mixture which included a surfactant.
(§2) At the same time, plants selected from these crop and weed species and also winter barley (Hordeum vulgare), bermudagrass (Cynodon dactylon), downy bromegrass (Bromus tectorum), canarygrass (Phalaris minor), cocklebur (common cocklebur, Xanthium strumarium), woolly cupgrass (Eriochloa villosa), deadnettle (henbit deadnettle, Lamium amplexicaule), green foxtail (Setaria viridis), goosegrass (Eleusine indica), surinam grass (Brachiaria decumbens), windgrass (Apera spica-venti), chickweed (common chickweed, Stellaria media), kochia (Kochia scoparia), and wild oat (Avena fatua), were planted in pots containing Redi-Earth® planting medium (Scotts Company, 14111 Scottslawn Road, Marysville, Ohio 43041) comprising spaghnum peat moss, vermiculite, wetting agent and starter nutrients and treated with postemergence applications of test chemicals formulated in the same manner. Plants ranged in height from 2 to 18 cm (1- to 4-leaf stage) for postemergence treatments. Treated plants and controls were maintained in a greenhouse for 13 to 15 days, after which time all species were compared to controls and visually evaluated. Plant response ratings, summarized in Table C, are based on a scale of 0 to 100 where 0 is no effect and 100 is complete control. A dash (-) response means no test result.

[2] = tested on: pigweed (Amaranthus retroflexus); assay: as above; settings: Postemergence; for Plant response rating, Pigweed: scale 0 to 100
Description: as §1, §2

[3] = tested on: velvetleaf (Abutilon theophrasti); assay: as above; settings: Postemergence; for Plant response rating, Velvetleaf: scale 0 to 100
Description: as §1, §2

[4] = tested on: Italian ryegrass (Lolium multiflorum); assay: as above; settings: Postemergence; for Plant response rating, Ryegrass, Italian: scale 0 to 100
Description: as §1, §2

[5] = tested on: ragweed (common ragweed, Ambrosia elatior); assay: as above; settings: Postemergence; for Plant response rating, Ragweed: scale 0 to 100
Description: as §1, §2

corn (Zea mays) [6] = assay: Test A pre-/postemergence greenhouse herbicide test, visual injury rating 0-100; settings: 1000 g ai/ha
Outline: (§3)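 Visual injury versus untreated controls, scored about 10 days after treatment on a 0 to 100 scale (0 = no effect, 100 = complete control). Applications were preemergence directed soil spray plus postemergence spray at one- to two-leaf stage, 2 to 10 cm plants.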

[7] = tested on: pigweed (Amaranthus retroflexus); assay: as above; settings: 1000 g ai/ha
Outline: as §3

[8] = tested on: velvetleaf (Abutilon theophrasti); assay: as above; settings: 1000 g ai/ha
Outline: as §3

[9] = tested on: large (Lg) crabgrass (Digitaria sanguinalis); assay: as above; settings: 1000 g ai/ha
Outline: as §3

[10] = tested on: barnyardgrass (Echinochloa crus-galli); assay: as above; settings: 1000 g ai/ha
Outline: as §3

[11] = tested on: wheat (Triticum aestivum); assay: as above; settings: 1000 g ai/ha
Outline: as §3

[12] = tested on: giant foxtail (Setaria faberii); assay: as above; settings: 1000 g ai/ha
Outline: as §3

[13] = tested on: morningglory (Ipomoea spp.); assay: as above; settings: 1000 g ai/ha
Outline: as §3

`ON=C(c1ccccc1)c1c[nH]nc1-c1cc(Cl)cc(Cl)c1` [Compound 50] was tested, and the “Plant response rating (0 to 100), Corn” value (corn (Zea mays) [1]; 31 g ai/ha) was 0, the “Plant response rating (0 to 100), Corn” value (corn (Zea mays) [1]; 62 g ai/ha) was 0 and the “Plant response rating (0 to 100), Corn” value (corn (Zea mays) [1]; 125 g ai/ha) was 0. The “Plant response rating, Corn” value (corn (Zea mays) [1]; 250 g ai/ha) was 0, the “Plant response rating (0 to 100), Pigweed” value ([2]; 62 g ai/ha) was 75 and the “Plant response rating (0 to 100), Pigweed” value ([2]; 125 g ai/ha) was 100. For the same compound, the “Plant response rating, Pigweed” value ([2]; 250 g ai/ha) was 100, the “Plant response rating (0 to 100), Velvetleaf” value ([3]; 62 g ai/ha) was 75 and the “Plant response rating (0 to 100), Velvetleaf” value ([3]; 125 g ai/ha) was 90. For the same compound, the “Plant response rating, Velvetleaf” value ([3]; 250 g ai/ha) was 95, the “Plant response rating (0 to 100), Ryegrass, Italian” value ([4]; 62 g ai/ha) was 0 and the “Plant response rating (0 to 100), Ryegrass, Italian” value ([4]; 125 g ai/ha) was 0. For the same compound, the “Plant response rating, Ryegrass, Italian” value ([4]; 250 g ai/ha) was 0, the “Plant response rating (0 to 100), Ragweed” value ([5]; 62 g ai/ha) was 0 and the “Plant response rating (0 to 100), Ragweed” value ([5]; 125 g ai/ha) was 0. The “Plant response rating, Ragweed” value ([5]; 250 g ai/ha) was 45, the “Plant response rating (0 to 100 scale), Corn” value (corn (Zea mays) [6]; Postemergence) was 0 and the “Plant response rating (0 to 100 scale), Corn” value (corn (Zea mays) [6]; Preemergence) was 0. For the same compound, the “Plant response rating (0 to 100 scale), Pigweed” value ([7]; Postemergence) was 90, the “Plant response rating (0 to 100 scale), Pigweed” value ([7]; Preemergence) was 100 and the “Plant response rating (0 to 100 scale), Velvetleaf” value ([8]; Postemergence) was 100. For the same compound, the “Plant response rating (0 to 100 scale), Velvetleaf” value ([8]; Preemergence) was 90, the “Plant response rating (0 to 100 scale), Crabgrass, Large” value (“Plant response rating … Large” for short) ([9]; Postemergence) was 0 and the “Plant response rating … Large” value ([9]; Preemergence) was 0. The “Plant response rating (0 to 100 scale), Barnyardgrass” value (“Plant response rating … Barnyardgrass” below) ([10]; Postemergence) was 0, the “Plant response rating … Barnyardgrass” value ([10]; Preemergence) was 0 and the “Plant response rating (0 to 100 scale), Wheat” value (“Plant response rating … Wheat” below) ([11]; Postemergence) was 0. The “Plant response rating … Wheat” value ([11]; Preemergence) was 0, the “Plant response rating (0 to 100 scale), Foxtail, Giant” value (“Plant response rating … Giant” below) ([12]; Postemergence) was 10 and the “Plant response rating … Giant” value ([12]; Preemergence) was 0. The “Plant response rating (0 to 100 scale), Morningglory” value (“Plant response rating … Morningglory” for short) ([13]; Postemergence) was 0 and the “Plant response rating … Morningglory” value ([13]; Preemergence) was 0.

With `Cn1cc(C(=O)c2cccs2)c(-c2cc(Cl)cc(Cl)c2)n1` [Compound 17] the “Plant response rating, Corn” value (corn (Zea mays) [1]; 500 g ai/ha) was 10, the “Plant response rating (0 to 100), Pigweed” value ([2]; 62 g ai/ha) was 75 and the “Plant response rating (0 to 100), Pigweed” value ([2]; 125 g ai/ha) was 80. For the same compound, the “Plant response rating, Pigweed” value ([2]; 500 g ai/ha) was 85, the “Plant response rating (0 to 100), Velvetleaf” value ([3]; 62 g ai/ha) was 80 and the “Plant response rating (0 to 100), Velvetleaf” value ([3]; 125 g ai/ha) was 80. For the same compound, the “Plant response rating, Velvetleaf” value ([3]; 250 g ai/ha) was 80, the “Plant response rating, Velvetleaf” value ([3]; 500 g ai/ha) was 80 and the “Plant response rating (0 to 100), Ryegrass, Italian” value ([4]; 62 g ai/ha) was 0. For the same compound, the “Plant response rating (0 to 100), Ryegrass, Italian” value ([4]; 125 g ai/ha) was 0, the “Plant response rating, Ryegrass, Italian” value ([4]; 250 g ai/ha) was 0 and the “Plant response rating, Ryegrass, Italian” value ([4]; 500 g ai/ha) was 5. The “Plant response rating (0 to 100), Ragweed” value ([5]; 62 g ai/ha) was 0, the “Plant response rating (0 to 100), Ragweed” value ([5]; 125 g ai/ha) was 10 and the “Plant response rating, Ragweed” value ([5]; 250 g ai/ha) was 10. The “Plant response rating, Ragweed” value ([5]; 500 g ai/ha) was 10.

In the case of `CCn1cc(C(=O)c2cccs2)c(-c2cc(Cl)cc(Cl)c2)n1` [Compound 18], the “Plant response rating (0 to 100), Corn” value (corn (Zea mays) [1]; 125 g ai/ha) is reported as 5, the “Plant response rating, Corn” value (corn (Zea mays) [1]; 250 g ai/ha) is reported as 10 and the “Plant response rating (0 to 100), Pigweed” value ([2]; 62 g ai/ha) is reported as 85. The “Plant response rating (0 to 100), Pigweed” value ([2]; 125 g ai/ha) was 100, the “Plant response rating, Pigweed” value ([2]; 250 g ai/ha) was 100 and the “Plant response rating, Pigweed” value ([2]; 500 g ai/ha) was 100. For the same compound, the “Plant response rating (0 to 100), Velvetleaf” value ([3]; 62 g ai/ha) was 50, the “Plant response rating (0 to 100), Velvetleaf” value ([3]; 125 g ai/ha) was 65 and the “Plant response rating, Velvetleaf” value ([3]; 250 g ai/ha) was 70. For the same compound, the “Plant response rating, Velvetleaf” value ([3]; 500 g ai/ha) was 80, the “Plant response rating (0 to 100), Ryegrass, Italian” value ([4]; 62 g ai/ha) was 0 and the “Plant response rating (0 to 100), Ryegrass, Italian” value ([4]; 125 g ai/ha) was 0. The “Plant response rating, Ryegrass, Italian” value ([4]; 250 g ai/ha) was 0, the “Plant response rating, Ryegrass, Italian” value ([4]; 500 g ai/ha) was 5 and the “Plant response rating (0 to 100), Ragweed” value ([5]; 125 g ai/ha) was 10. The “Plant response rating, Ragweed” value ([5]; 250 g ai/ha) was 15 and the “Plant response rating, Ragweed” value ([5]; 500 g ai/ha) was 25.

With `CCn1cc(C(=O)c2ccccc2)c(-c2cc(Br)cc(Br)c2)n1` [Compound 38] the “Plant response rating (0 to 100), Pigweed” value ([2]; 62 g ai/ha) was 85, the “Plant response rating, Pigweed” value ([2]; 250 g ai/ha) was 100 and the “Plant response rating (0 to 100), Velvetleaf” value ([3]; 62 g ai/ha) was 75. For the same compound, the “Plant response rating (0 to 100), Velvetleaf” value ([3]; 125 g ai/ha) was 90, the “Plant response rating (0 to 100), Ryegrass, Italian” value ([4]; 62 g ai/ha) was 0 and the “Plant response rating (0 to 100), Ryegrass, Italian” value ([4]; 125 g ai/ha) was 0. For the same compound, the “Plant response rating, Ryegrass, Italian” value ([4]; 250 g ai/ha) was 0, the “Plant response rating (0 to 100), Ragweed” value ([5]; 62 g ai/ha) was 10 and the “Plant response rating (0 to 100), Ragweed” value ([5]; 125 g ai/ha) was 20. The “Plant response rating, Ragweed” value ([5]; 250 g ai/ha) was 35, the “Plant response rating (0 to 100 scale), Corn” value (corn (Zea mays) [6]; Postemergence) was 0 and the “Plant response rating (0 to 100 scale), Corn” value (corn (Zea mays) [6]; Preemergence) was 0. The “Plant response rating (0 to 100 scale), Pigweed” value ([7]; Postemergence) was 100, the “Plant response rating (0 to 100 scale), Pigweed” value ([7]; Preemergence) was 90 and the “Plant response rating (0 to 100 scale), Velvetleaf” value ([8]; Postemergence) was 90. The “Plant response rating (0 to 100 scale), Velvetleaf” value ([8]; Preemergence) was 80, the “Plant response rating … Large” value ([9]; Postemergence) was 0 and the “Plant response rating … Large” value ([9]; Preemergence) was 0. For the same compound, the “Plant response rating … Barnyardgrass” value ([10]; Postemergence) was 0, the “Plant response rating … Barnyardgrass” value ([10]; Preemergence) was 0 and the “Plant response rating … Wheat” value ([11]; Postemergence) was 0. For the same compound, the “Plant response rating … Wheat” value ([11]; Preemergence) was 0, the “Plant response rating … Giant” value ([12]; Postemergence) was 0 and the “Plant response rating … Giant” value ([12]; Preemergence) was 0. For the same compound, the “Plant response rating … Morningglory” value ([13]; Preemergence) was 0.
